Test results taken from patent US20230210834A1, “RNA METHYLTRANSFERASE INHIBITOR, SCREENING METHOD THEREFOR, ANTI-CANCER AGENT EFFICACY ASSESSMENT MARKER, AND KIT FOR EFFECTIVELY PREDICTING FTSJ1 INHIBITOR” (National University Corporation Okayama University, priority 2019, published 2023).

Tests used:
YAP/TAZ = experiment: Screening: YAP/TAZ activity reporter (8xGTIIC plasmid) assay in NUGC3 cells (luminescence % of DMSO); format: cell-based, human; details: NUGC3 cells, luminescence relative to DMSO
[1] = system: triple-negative breast cancer cell line MDA-MB-231; experiment: Anti-tumor effect evaluation test in MDA-MB-231 tumor model mice; format: in vivo, immunodeficient mice (BALB/c-nu/nu); details: 20 mg/kg intraperitoneally every other day in corn oil; FIG. 1 and 2
Method: (§1) A cell suspension (1×10^6 cells/100 μL), in which triple-negative breast cancer cell line MDA-MB-231 was suspended in phosphate buffer (PBS, produced by FUJIFILM Wako Pure Chemical Corporation), was inoculated subcutaneously in the dorsal lumbar region of immunodeficient mice (BALB/c-nu/nu, female, 6 weeks old, purchased from Shimizu Laboratory Supplies Co., Ltd.) using a syringe with a 23 G injection needle (Terumo Corporation). After confirming that the cancer cells engrafted under the skin of the mice to form tumor tissues, and that the tumor volume reached 100 mm^3, the obtained tumor model mice were used for the following evaluation test. First, each compound for evaluation was dissolved in corn oil (produced by Sigma-Aldrich Co., LLC) and administered intraperitoneally. PVZF0024 was administered at 100 mg/kg and PVZF2001 was administered at 20 mg/kg to the tumor model mice every other day. At each administration, the tumor diameter was measured with a caliper. The tumor volume was calculated according to the following formula: V=(3.14×D×d^2)/6 (wherein V is the tumor volume, D is the tumor major axis, and d is the tumor minor axis) (Wu. et al., Clin. Cancer Res., 2013 Oct. 15; 19(20): 5699-5710).

[2] = Body weight in the anti-tumor effect evaluation test; format: in vivo, immunodeficient mice (BALB/c-nu/nu); details: 20 mg/kg intraperitoneally every other day
Method: as §1
FIGS. 1 and 2 show the antitumor effects of PVZF0024 and PVZF2001.

MGG4 = experiment: Sphere-forming ability (anchorage-independent cell proliferation), MGG4; format: cell-based, human; details: MGG4 (high FTSJ1 expression), 1 week, 0-5000 nM; FIG. 4B
Method: (§2) To verify whether the expression analysis of these gene clusters contributes to predicting the anti-cancer effect by the FTSJ1 inhibitors, the FTSJ1 gene was actually used as an example to analyze the anti-cancer effect of the FTSJ1 inhibitor PVZF2001 on human malignant brain tumor cell lines. Human malignant brain tumor cell lines MGG4, MGG8, MGG18, MGG23 were treated with stem cell medium (Neurobasal, B-27, N-2, 20 ng/mL EGF, 20 ng/mL bFGF) containing different concentrations (0 nm, 200 nM, 500 nM, 1000 NM, 2000 NM, 5000 nM) of PVZF2001 for 1 week, and anchorage-independent cell proliferation was evaluated based on sphere-forming ability.

MGG8 = experiment: Sphere-forming ability (anchorage-independent cell proliferation), MGG8; format: cell-based, human; details: MGG8 (high FTSJ1 expression), 1 week, 0-5000 nM; FIG. 4B
Method: as §2

MGG18 = experiment: Sphere-forming ability (anchorage-independent cell proliferation), MGG18; format: cell-based, human; details: MGG18 (high FTSJ1 expression), 1 week, 0-5000 nM; FIG. 4B
Method: as §2

MGG23 = experiment: Sphere-forming ability (anchorage-independent cell proliferation), MGG23; format: cell-based, human; details: MGG23 (low FTSJ1 expression), 1 week, 0-5000 nM; FIG. 4B
Method: as §2

## CC(C)c1cc(C(C)C)c(S(=O)(=O)CC2CC(C)(C)CC(C)(C)C2)c(C(C)C)c1 [PVZF2001]
YAP/TAZ; 5 μM
  8×GTIIC: 40.38%
YAP/TAZ; 10 μM
  8×GTIIC: 20.02%
[1]
  antitumor effect (tumor growth, tumor volume): significantly inhibit tumor growth
[2]
  weight loss due to administration: no weight loss due to administration was observed
MGG4
  anchorage-independent cell proliferation (sphere-forming ability): showed proliferation inhibition at low concentrations
MGG8
  anchorage-independent cell proliferation (sphere-forming ability): showed proliferation inhibition at low concentrations
MGG18
  anchorage-independent cell proliferation (sphere-forming ability): showed proliferation inhibition at low concentrations
MGG23
  anchorage-independent cell proliferation (sphere-forming ability): showed cell proliferation even when treated at a concentration as high as 2000 NM
